Results from patent US20200000772A1, “CENICRIVIROC COMBINATION THERAPY FOR THE TREATMENT OF FIBROSIS” (Tobira Therapeutics, Inc., priority 2014, published 2020).
Entries after “also recorded” stand apart in the source; their conditions may differ.

Key:
[1] = system: renal fibrosis induced by unilateral ureter occlusion (UUO); assay: Mouse UUO model of renal fibrosis; type: in vivo, CD-1 mice
Description: Test animals were allocated to weight-matched treatment groups on the day prior to the surgical procedure (Day −1). Male CD-1 mice (N=51; age, 7-8 weeks) underwent either sham surgery or total ligation of the right ureter, i.e. UUO, via aseptic laparotomy (FIG. 5). […] Another group received the anti-transforming growth factor TGF-β1 antibody, compound 1D11 (positive control) at 3 mg/kg/day from Days −1 to 4, injected intraperitoneally once daily, and vehicle control from Days 0 to 5. […] On Day 5, animals were anaesthetised, blood and tissues were collected prior to sacrifice.
Study endpoints included: a) body and kidney weights; b) fibrosis in obstructed kidney evaluated via histological quantitative image analysis of picrosirius red staining (ten images/depth/kidney obtained and assessed in a blinded fashion using light microscopy [at 200×] to enable sampling of 60-70% of the renal cortical area) and quantified by a composite Collagen Volume Fraction (CVF [% total area imaged]) score expressed as the average positive stain across three anatomically distinct ([…] apart) tissue sections, or depths, from the obstructed kidney; c) hydroxyproline content of frozen renal cortical tissue biopsies as assessed by biochemical analyses; d) mRNA expression of profibrotic and inflammatory biomarkers (including MCP-1, Collagen 1a1, Collagen 3a1, TGF-β1, Fibronectin-1, α-smooth muscle actin (α-SMA) and connective tissue growth factor-1 (CTGF-1); assessed via Luminex® (Life Technologies™, Carlsbad, Calif., USA) assay with relative expression normalised to HPRT (hypoxanthine phosphoribosyltransferase).
Data are expressed as mean±standard error of mean (SEM). Statistical analyses were performed using GraphPad Prism® (GraphPad Software, Inc., San Diego, Calif., USA). Treatment differences between sham-surgery+vehiclecontrol and UUO+vehicle-control groups, and between UUO+vehicle-control and UUO+compound-1D1 (positive control) groups, were analysed by unpaired t-Test. Treatment differences between UUO+vehicle-control and CVC-dose groups were analysed by one-way ANOVA (analysis of variance) with Dunnett's test (post-hoc).

[2] = Phase 1 CVC and pioglitazone co-administration PK and safety study; type: in vivo, healthy subjects; details: CVC 150 mg QD and PGZ 45 mg QD
Description: Plasma samples were collected prior to each dose and over 24 hours at the end of each treatment period. Cmax, Cmin, tmax, and AUC0-tau were determined using non-compartmental methods. Geometric means, GMRs and CIs were calculated.

[3] = system: adults with CCR5 tropic HIV-1; assay: Study 202 post-hoc APRI and FIB-4 fibrosis index scores; type: in vivo, human
Description: APRI and FIB-4 scores were calculated. Change in score category from baseline (BL) to Weeks 24 and 48 was assessed in patients with non-missing data. Correlations between changes from BL in APRI and FIB-4 scores, and MCP-1 (CCR2 ligand) and sCD14 (inflammatory biomarker) levels were evaluated.

CCR2 = CCR2 (Homo sapiens, UniProt P41597); assay: CCR2 antagonism in in vitro, ex vivo and clinical studies; details: ex vivo, Studies 652-2-201 and 652-2-202
CCR2, sequence (P41597 whole entry): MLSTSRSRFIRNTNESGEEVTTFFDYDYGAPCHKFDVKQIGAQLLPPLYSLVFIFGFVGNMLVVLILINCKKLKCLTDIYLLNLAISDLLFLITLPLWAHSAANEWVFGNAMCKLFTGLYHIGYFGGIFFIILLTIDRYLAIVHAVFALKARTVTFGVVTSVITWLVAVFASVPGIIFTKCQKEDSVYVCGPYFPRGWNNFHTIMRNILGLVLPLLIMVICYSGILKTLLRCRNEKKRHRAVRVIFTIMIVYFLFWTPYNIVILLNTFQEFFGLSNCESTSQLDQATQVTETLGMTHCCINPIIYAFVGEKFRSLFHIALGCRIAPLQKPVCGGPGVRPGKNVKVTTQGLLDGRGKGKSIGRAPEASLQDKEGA
Source text: Clinical evidence of CCR2 and CCR5 antagonism was established by measuring changes from baseline in plasma MCP-1 (a ligand of CCR2) concentrations and changes in plasma HIV-RNA (CCR5 co-receptor required for HIV entry), respectively, in these 2 Phase 2 Studies.

HIV-1 infected subjects = assay: Study 202 efficacy and tolerability; type: in vivo, human; details: CVC 100 mg and 200 mg for up to 48 weeks, 115 subjects
[4] = system: STAM™ mouse model of Non-alcoholic Steatohepatitis; assay: STAM mouse model of NASH, Part 2: anti-HCC effects at week 18; details: for Body weight / Liver-to-body weight ratio: mean ± SD; for mice that died (survival analysis): 6 to 18 weeks
Description: Group 1-Vehicle: Eighteen NASH mice were orally administered vehicle at a volume of 10 mL/kg twice daily (9:00 and 19:00) from 6 weeks of age.

[5] = CVC 7 and 20 mg/kg/day, compound 1D11, vs UUO+vehicle-control
[6] = CVC-high 100 mg/kg/day, week 18
[7] = CVC-high 100 mg/kg/day, week 18, listed as Cenicriviroc
[8] = CVC-low 20 mg/kg/day, week 18, listed as Cenicriviroc

**Q.** With `CCCCOCCOc1ccc(-c2ccc3c(c2)/C=C(/C(=O)Nc2ccc([S@@+]([O-])Cc4cncn4CCC)cc2)CCCN3CC(C)C)cc1` [CVC, (S)-8-[4-(2-Butoxyethoxy)phenyl]-1-isobutyl-N-(4-{[(1-propyl-1H-imidazol-5-yl)methyl]sulfinyl}phenyl)-1,2,3,4-tetrahydro-1-benzazocine-5-carboxamide] as the compound, how does the “effect on body weight” value ([1]; CVC 7 mg/kg/day oral, compound 1D11 3 mg/kg/day i.p., Day 5) read?
**A.** no effect

**Q.** And the “decrease in body weight relative to UUO+vehicle-control” value ([1]; CVC 20 mg/kg/day, Day 5)?
**A.** 5%

**Q.** And the “tolerability after UUO surgery” value ([1]; CVC 100 mg/kg/day group (N=9))?
**A.** terminated early due to moribundity

**Q.** What about the “effect on UUO-induced increases in obstructed kidney hydroxyproline content” value ([1]; CVC 7 and 20 mg/kg/day) of the same compound?
**A.** Neither dose of CVC tested affected

**Q.** What about the “effects on obstructed or contralateral kidney weight or kidney weight index” value ([1]; CVC 7 and 20 mg/kg/day, compound 1D11 3 mg/kg/day, vs UUO+vehicle-control) of the same compound?
**A.** No significant treatment effects

**Q.** What about the “Collagen 1a1, Collagen 3a1, TGF-β1 and Fibronectin-1 mRNA expression in obstructed kidney” value [1, 5] of the same compound?
**A.** attenuated UUO-induced increases

**Q.** And the “obstructed kidney cortical MCP-1, α-SMA and CTGF-1 mRNA expression” value [1, 5]?
**A.** did not have significant effects

**Q.** What about the Cmin on co-administration [2] of the same compound?
**A.** remained unchanged

**Q.** What about the “steady-state Cmax and AUC0-tau on co-administration” value [2] of the same compound?
**A.** modest decrease

**Q.** And the “subjects with APRI 0.5-1.5” value ([3]; Baseline)?
**A.** 14%

**Q.** And the “subjects with APRI <0.5” value ([3]; Baseline)?
**A.** 84%

**Q.** And the “subjects with APRI >1.5” value ([3]; Baseline)?
**A.** 2%

**Q.** And the “subjects with FIB-4 1.45-3.25” value ([3]; Baseline)?
**A.** 17%

**Q.** What about the “subjects with FIB-4 <1.45” value ([3]; Baseline) of the same compound?
**A.** 82%

**Q.** What about the “subjects with FIB-4 >3.25” value ([3]; Baseline) of the same compound?
**A.** 1%

**Q.** What about the “subjects with APRI 0.5-1.5” value ([3]; Week 24) of the same compound?
**A.** 7%

**Q.** What about the “subjects with APRI <0.5” value ([3]; Week 24) of the same compound?
**A.** 93%

**Q.** And the “subjects with APRI decreased 1 category from baseline” value ([3]; Week 24)?
**A.** 14%

**Q.** What about the “subjects with FIB-4 1.45-3.25” value ([3]; Week 24) of the same compound?
**A.** 7%

**Q.** And the “subjects with FIB-4 <1.45” value ([3]; Week 24)?
**A.** 93%

**Q.** And the “subjects with FIB-4 decreased 1 category from baseline” value ([3]; Week 24)?
**A.** 13%

**Q.** What about the “subjects with APRI 0.5-1.5” value ([3]; Week 48) of the same compound?
**A.** 8%

**Q.** What about the “subjects with APRI <0.5” value ([3]; Week 48) of the same compound?
**A.** 91%

**Q.** What about the “subjects with APRI >1.5” value ([3]; Week 48) of the same compound?
**A.** 1%

**Q.** What about the “subjects with APRI decreased 1 category from baseline” value ([3]; Week 48) of the same compound?
**A.** 10%

**Q.** And the “subjects with FIB-4 1.45-3.25” value ([3]; Week 48)?
**A.** 5%

**Q.** What about the “subjects with FIB-4 <1.45” value ([3]; Week 48) of the same compound?
**A.** 94%

**Q.** What about the “subjects with FIB-4 >3.25” value ([3]; Week 48) of the same compound?
**A.** 1%

**Q.** And the “subjects with FIB-4 decreased 1 category from baseline” value ([3]; Week 48)?
**A.** 14%

**Q.** And the “subjects with improvements in APRI and FIB-4 scores over time” value ([3]; pooled data for CVC 100 mg and 200 mg)?
**A.** ≥ 10%

**Q.** What about the “antagonism of CCR2” value (CCR2) of the same compound?
**A.** potent and concentration-dependent antagonism

**Q.** And the “tolerability in HIV-1 infected subjects” value (HIV-1 infected subjects)?
**A.** generally well tolerated; also recorded: effective and well tolerated

**Q.** What about the “effect on NASH-derived HCC” value ([4]; CVC treatment groups, week 18) of the same compound?
**A.** not observed

**Q.** And the Body weight [4, 6]?
**A.** 20.8 ± 2.7 g

**Q.** What about the Liver-to-body weight ratio [4, 6] of the same compound?
**A.** 8.8±2.3%

**Q.** What about the Body weight [4, 7] of the same compound?
**A.** 20.8 ± 2.7 g

**Q.** What about the Liver-to-body weight ratio [4, 7] of the same compound?
**A.** 8.8 ± 2.3%

**Q.** And the “mice that died (survival analysis)” value ([4]; CVC-high group)?
**A.** Five out of twelve mice died

**Q.** What about the “mice with GS-positive nodules” value ([4]; CVC-high group, week 18) of the same compound?
**A.** seven out of seven mice

**Q.** What about the “mice with HCC lesions (HE staining)” value ([4]; CVC-high group, week 18) of the same compound?
**A.** six out of seven mice

**Q.** And the Body weight ([4]; CVC-low 20 mg/kg/day, week 18)?
**A.** 22.9 ± 3.5 g

**Q.** And the Liver-to-body weight ratio ([4]; CVC-low 20 mg/kg/day, week 18)?
**A.** 8.3±2.8%

**Q.** And the Body weight [4, 8]?
**A.** 22.9 ± 3.5 g

**Q.** What about the Liver-to-body weight ratio [4, 8] of the same compound?
**A.** 8.3 ± 2.8%

**Q.** What about the “mice that died (survival analysis)” value ([4]; CVC-low group) of the same compound?
**A.** Six out of twelve mice died

**Q.** And the “mice with GS-positive nodules” value ([4]; CVC-low group, week 18)?
**A.** five out of six mice

**Q.** And the “mice with HCC lesions (HE staining)” value ([4]; CVC-low group, week 18)?
**A.** five out of six mice
